These results are taken from PubChem BioAssay AID330 (DTP/NCI, 2004).

“And” between values parts separate entries of the source, which are not always exact repeats. Identical values can stand only once. Inconclusive results and toxic doses are left out.

The subject of the test is P388 leukemia ip, CD2F1 mice, survival T/C. Briefly: NCI In Vivo Anticancer Drug Screen. Data for tumor model P388 Leukemia (intraperitoneal) in CD2F1 (CDF1) mice. As to conditions: endpoint: median survival time, higher = longer survival. In short, it runs like this: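 Mice carrying the transplanted tumor received test compound or vehicle. Survival was recorded in each group, and the value is the treated-group measurement divided by that of the vehicle-treated control group.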

Setting [1] is: dose: 50.0 mg/kg/injection, schedule: Q01DX009 (ip), vehicle: saline.
[2] abbreviates: dose: 100.0 mg/kg/injection, schedule: Q01DX009 (ip), vehicle: saline.
[3] abbreviates: dose: 200.0 mg/kg/injection, schedule: Q01DX009 (ip), vehicle: saline.
Setting [4] is: dose: 50.0 mg/kg/injection, schedule: Q01DX005 (ip), vehicle: saline with Tween-80.
The mark [5] stands for this setting: dose: 100.0 mg/kg/injection, schedule: Q01DX005 (ip), vehicle: saline with Tween-80.
[6] abbreviates: dose: 60.0 mg/kg/injection, schedule: Q01DX005 (ip), vehicle: saline with Tween-80.
[7] abbreviates: dose: 120.0 mg/kg/injection, schedule: Q01DX005 (ip), vehicle: saline with Tween-80.
Setting [8] is: dose: 240.0 mg/kg/injection, schedule: Q01DX005 (ip), vehicle: saline with Tween-80.
Where [9] appears, read: dose: 50.0 mg/kg/injection, schedule: Q01DX009 (ip), vehicle: saline with Tween-80.
Where [10] appears, read: dose: 100.0 mg/kg/injection, schedule: Q01DX009 (ip), vehicle: saline with Tween-80.
[11] abbreviates: dose: 200.0 mg/kg/injection, schedule: Q01DX009 (ip), vehicle: saline with Tween-80.
Where [12] appears, read: dose: 400.0 mg/kg/injection, schedule: Q01DX001 (ip), vehicle: Klucel (hydroxypropylcellulose) (HPC).
Setting [13] is: dose: 50.0 mg/kg/injection, schedule: Q01DX005 (ip), vehicle: Klucel (hydroxypropylcellulose) (HPC).
The mark [14] stands for this setting: dose: 100.0 mg/kg/injection, schedule: Q01DX005 (ip), vehicle: Klucel (hydroxypropylcellulose) (HPC).
Setting [15] is: dose: 200.0 mg/kg/injection, schedule: Q01DX005 (ip), vehicle: Klucel (hydroxypropylcellulose) (HPC).
Setting [16] is: dose: 25.0 mg/kg/injection, schedule: Q01DX009 (ip), vehicle: saline with Tween-80.

For the compound `NCC(O)c1ccc(O)cc1` (stereo unspecified), the T/C is 101 % of control and 111 % of control under setting [1]; 106 % of control and 108 % of control under setting [2]; 106 % of control and 90 % of control under setting [3]; 89 % of control and 96 % of control (dose: 400.0 mg/kg/injection, schedule: Q01DX009 (ip), vehicle: saline); 89 % of control and 90 % of control (dose: 600.0 mg/kg/injection, schedule: Q01DX009 (ip), vehicle: saline).
Consider `CCCCN(CCCC)CC(O)c1cccc2cc(Cl)ccc12` (stereo unspecified), for which the T/C under setting [4] is 104 % of control and the T/C under setting [5] is 109 % of control.
`NNC(=O)C1CC2c3ccccc3C1c1ccccc12` (stereo unspecified): the T/C under setting [6] is 101 % of control, the T/C under setting [7] is 99 % of control and the T/C under setting [8] is 97 % of control.
Regarding `N#Cc1ccc(NN=O)cc1`, the T/C was 100 % of control (dose: 3.12 mg/kg/injection, schedule: Q01DX009 (ip), vehicle: water); 105 % of control (dose: 6.25 mg/kg/injection, schedule: Q01DX009 (ip), vehicle: water); 105 % of control (dose: 12.5 mg/kg/injection, schedule: Q01DX009 (ip), vehicle: water); 117 % of control (dose: 25.0 mg/kg/injection, schedule: Q01DX009 (ip), vehicle: water); 117 % of control (dose: 100.0 mg/kg/injection, schedule: Q01DX009 (ip), vehicle: water).
As for `Cc1cc2c(c3ncccc13)OCN(Cc1ccc(Cl)c(Cl)c1)C2`, the T/C reads like this: under setting [9], 100 % of control; under setting [10], 98 % of control; under setting [11], 100 % of control.
Take `CC(C)(C)c1ccc(C2=NNC(C(F)(F)F)=NN2)cc1`: the T/C is 110 % of control under setting [9], 104 % of control under setting [10] and 119 % of control under setting [11].
Turning to `O=[N+]([O-])c1cc(NC(=S)SCc2ccccc2)ccc1Cl`, the T/C under setting [1] was 108 % of control; the T/C (dose: 50.0 mg/kg/injection, schedule: Q01DX009 (ip), vehicle: suspension in saline) was 92 % of control; the T/C under setting [2] is 115 % of control; the T/C under setting [3] is 108 % of control; the T/C (dose: 200.0 mg/kg/injection, schedule: Q01DX009 (ip), vehicle: suspension in saline) was 92 % of control.
In the case of `N#Cc1c(-c2ccccc2)nc2sccn12`, the T/C is 88 % of control (dose: 100.0 mg/kg/injection, schedule: Q01DX001 (ip), vehicle: Klucel (hydroxypropylcellulose) (HPC)) and 91 % of control under setting [12].
Take `O=C(CCl)Nc1ccc(Cl)cc1C(=O)c1ccccc1`: the T/C was 107 % of control under setting [9], 98 % of control under setting [10] and 104 % of control under setting [11].
For `Cc1ccccc1NCN1C(=O)S/C(=C2\C(=O)N(C)c3ccc(Br)cc32)C1=O`, the T/C was 95 % of control under setting [13], 92 % of control under setting [14] and 90 % of control under setting [15].
`O=C1Nc2ccccc2/C1=N/N1C(=O)CSC1=S`: the T/C was 97 % of control (dose: 0.93 mg/kg/injection, schedule: Q01DX005 (ip), vehicle: Klucel (hydroxypropylcellulose) (HPC)); 94 % of control (dose: 1.87 mg/kg/injection, schedule: Q01DX005 (ip), vehicle: Klucel (hydroxypropylcellulose) (HPC)); 88 % of control (dose: 3.75 mg/kg/injection, schedule: Q01DX005 (ip), vehicle: Klucel (hydroxypropylcellulose) (HPC)).
On to `CSC1(SC2=NCCN2)SC2(NCCN2)S1`, for which the T/C by setting is: (dose: 200.0 mg/kg/injection, schedule: Q01DX001 (ip), vehicle: Klucel (hydroxypropylcellulose) (HPC)) 86 % of control; under setting [12], 90 % of control.
With `Cc1sc(N=Nc2ccc(N(C)C)cc2)[n+]([O-])c1C`, the T/C is 111 % of control (dose: 50.0 mg/kg/injection, schedule: Q01DX009 (ip), vehicle: Klucel (hydroxypropylcellulose) (HPC)); 102 % of control (dose: 100.0 mg/kg/injection, schedule: Q01DX009 (ip), vehicle: Klucel (hydroxypropylcellulose) (HPC)); 104 % of control (dose: 200.0 mg/kg/injection, schedule: Q01DX009 (ip), vehicle: Klucel (hydroxypropylcellulose) (HPC)).
Consider `CC1C(=O)C(C)C(c2ccccc2)NC1c1ccccc1` (stereo unspecified), for which the T/C is 99 % of control under setting [1], 98 % of control under setting [2] and 89 % of control under setting [3].
As to `[Br][Sn]([Br])([CH2][Sn]([Br])([c]1ccccc1)[c]1ccccc1)[c]1ccccc1`, where the note is “dose: 12.5 mg/kg/injection, schedule: Q01DX005 (ip), vehicle: Klucel (hydroxypropylcellulose) (HPC)”, the T/C is 124 % of control.
Consider `O=C(O)CCc1c[nH]c2ccc(N(CCCl)CCCl)cc12`, for which the T/C reads like this: (dose: 0.08 mg/kg/injection, schedule: Q04DX003 (ip), vehicle: saline with Tween-80) 163 % of control; (dose: 0.15 mg/kg/injection, schedule: Q04DX003 (ip), vehicle: saline with Tween-80) 100 % of control; (dose: 0.25 mg/kg/injection, schedule: Q01DX009 (ip), vehicle: saline) 104 % of control; (dose: 0.33 mg/kg/injection, schedule: Q04DX003 (ip), vehicle: saline with Tween-80) 177 % of control; (dose: 0.5 mg/kg/injection, schedule: Q04DX003 (ip), vehicle: saline with Tween-80) 177 % of control; (dose: 0.75 mg/kg/injection, schedule: Q04DX003 (ip), vehicle: saline with Tween-80) 104 % of control.
Take `Clc1nnc(-c2ccccc2)c(-c2ccccc2)n1`: the T/C under setting [16] was 100 % of control, the T/C under setting [9] is 100 % of control and the T/C under setting [10] was 100 % of control.
On to `C=CCC(O)CC1CC2CCCCN2O1` (stereo unspecified), for which the T/C is, setting by setting: (dose: 50.0 mg/kg/injection, schedule: Q04DX003 (ip), vehicle: saline) 104 % of control; (dose: 100.0 mg/kg/injection, schedule: Q04DX003 (ip), vehicle: saline) 104 % of control; (dose: 200.0 mg/kg/injection, schedule: Q04DX003 (ip), vehicle: saline) 99 % of control.
For the compound `CCOC(=O)C[n+]1ccc2cc(OC)c(OC)cc2c1Cc1ccc(OC)c(OC)c1`, the T/C is 102 % of control under setting [9], 90 % of control under setting [10] and 90 % of control under setting [11].
`O=c1ccc(N=Nc2cccc([N+](=O)[O-])c2)ccc1O`: the T/C was 107 % of control under setting [16], 104 % of control under setting [9] and 104 % of control under setting [10].
Take `CCN(CC)CCCC(C)NC(=S)N/N=C(\C)c1ccccn1` (stereo unspecified): the T/C under setting [1] is 110 % of control and 113 % of control; the T/C under setting [3] was 157 % of control.
As to `CCOC(=O)c1ccc(NC(CCN2CCOCC2)=NC(C)(C)C)cc1`, the T/C runs as follows: under setting [9], 111 % of control; under setting [10], 106 % of control; under setting [11], 105 % of control.
Turning to `O=C1NC(=O)C2C3CCC(O3)C12` (stereo unspecified), the T/C was 106 % of control and 99 % of control (dose: 50.0 mg/kg/injection, schedule: Q01DX005 (ip), vehicle: saline); 94 % of control under setting [6]; 101 % of control (dose: 60.0 mg/kg/injection, schedule: Q01DX005 (ip), vehicle: saline); 106 % of control and 98 % of control (dose: 100.0 mg/kg/injection, schedule: Q01DX005 (ip), vehicle: saline); 100 % of control under setting [7]; 102 % of control (dose: 120.0 mg/kg/injection, schedule: Q01DX005 (ip), vehicle: saline). For the same compound, the T/C runs as follows: under setting [8], 106 % of control; (dose: 240.0 mg/kg/injection, schedule: Q01DX005 (ip), vehicle: saline) 92 % of control.
For the compound `COc1ccc(/C=N/Nc2nnc3c4ccccc4c4ccccc4c3n2)cc1OC`, the T/C by setting is: (dose: 50.0 mg/kg/injection, schedule: Q04DX002 (ip), vehicle: suspension in saline) 86 % of control; (dose: 100.0 mg/kg/injection, schedule: Q04DX002 (ip), vehicle: suspension in saline) 89 % of control; (dose: 200.0 mg/kg/injection, schedule: Q04DX002 (ip), vehicle: suspension in saline) 90 % of control.
For the compound `Cc1ccc2c(O)c3c(cc2c1O)C(=O)c1ccccc1C3=O`, the T/C was 100 % of control under setting [4]; 107 % of control under setting [5]; 109 % of control (dose: 200.0 mg/kg/injection, schedule: Q01DX005 (ip), vehicle: saline with Tween-80).
Turning to `CC(=O)N=c1c(Br)cc(Br)c(C)n1O`, the T/C is 93 % of control under setting [13], 99 % of control under setting [14] and 102 % of control under setting [15].
